Patent publication US20030180292A1, “Treatment of B cell malignancies using anti-CD40L antibodies in combination with anti-CD20 antibodies and/or chemotherapeutics and radiotherapy” (IDEC PHARMACEUTICALS, priority 2002, published 2003)

How the values were obtained:
DHL-4 cells = assay: Adriamycin (ADM) cytotoxicity of DHL-4 cells with sCD40L and IDEC-131, Alamar Blue assay; assay type: cell-based; conditions: 5 days
Experimental: Initially, the minimum concentration of ADM cytotoxic to DHL-4 cells was determined by exposing DHL-4 cells for 4 hours to different concentrations of ADM. The cell cytotoxicity of DHL-4 cells after 5 days in culture was measured by Alamar Blue, a dye-reduction assay by live cells (see Gazzano-Santoro et al., J. Immunol. Meth. 202: 163-171 (1997)). Briefly, 1×10^5 DHL-4 cells in growth medium (RMPI-1640 plus 10% Fetal Calf Serum) were incubated with varying concentrations of ADM (1×10^−6 M to 1×10^−8 M) in cell culture tubes at 37° C. for 4 hours. […] Following incubation, plates were cooled by incubating at room temperature for 10 minutes on a shaker, and the intracellular reduction of the dye was determined. Fluorescence was read using a 96-well fluorometer with excitation at 530 nm and emission at 590 nm. The results are expressed as relative fluorescence units (RFU). The percentage of cytotoxicity was calculated as follows: […]
DHL-4 cells (0.5×10^6 cells/ml) were incubated in the presence of 10 μg/ml of soluble CD40L (sCD40L, P. A. Brams, E. A. Padlan, K. Hariharan, K. Slater, J. Leonard, R. Noelle, and R. Newman, “A humanized anti-human CD154 monoclonal antibody blocks CD154-CD40 mediated human B cell activation,” (manuscript submitted)) for 1 hour at 37° C. […] After 5 days, the cytotoxicity was measured by Alamar Blue dye-uptake assay, as described.

B-CLL cells [1] = assay: Growth and survival of B-CLL cells after 7 days in culture, Alamar Blue assay; assay type: cell-based, human; conditions: cultures with sCD40L
Experimental: Cells in one tube were mixed with sCD40L (5 μl/ml) in equal volume of growth medium, whereas the other tube was incubated with equal volume of growth medium as control. […] Seven days later, cell survival/death in culture was determined by Alamar Blue assay, as described above.

[2] = test system: HLA-DR expression on CD19+ CLL cells; assay: HLA-DR expression on CD19+ CLL cells by flow cytometry; assay type: cell-based, human; conditions: for HLA-DR+ % Positive / HLA-DR+ MFI: CD19+ B-cells, 5 μg/ml CD40L
Experimental: To determine whether the CD40L-CD40 signal transduction pathway is intact, CLL cells from CLL patients were cultured (5×10^5 cells/ml) with and without 5 μg/ml of CD40L at 37° C. At 48 hours and 144 hours, the class II molecule, HLA-DR expression, was determined on […] cells by flow cytometry using standard procedures. Briefly, cultured lymphocytes were harvested at different time points and analyzed for surface expression of molecules using antibodies coupled to either fluorescein (FITC) or phycoerythrin (PE) for single or double staining using a FACScan (Becton-Dickinson) flow cytometer. To stain for flow cytometry, 1×10^6 cells in culture tubes were incubated with appropriate antibodies as follows: anti-CD45-FITC to gate lymphocyte population on a scatter plot; anti-CD19-PE (Pharmingen. Cat. #30655) or anti-CD20-FITC (Pharmingen; Cat. #33264) antibodies to determine the CD19^+ and/or […] B-cells; anti-CD3-FITC antibodies (Pharmingen; Cat. #30104) to gate-off the T cells; anti-CD19-RPE and anti-HLA-DR-FITC antibodies (Pharmingen; Cat. #32384) to determine the Pclass II expression on CD19^+ cells. Cells were washed once by centrifugation (at 200×g, for 6 min.) with 2 ml cold PBS and incubated with antibody for 30 min. on ice, after which the cells washed once, fixed in 0.5% paraformaldehyde and stored at 4° C. until analyzed. Flow cytometry data was acquired on FACsan and analyzed using WinList software (Verity Software House). The machine was set to autogating to allow examination of quadrants containing cells that were single stained with either RPE or FITC, unstained or doubly stained.

B-CLL cells [3] = assay: Survival of B-CLL cells in culture, Trypan blue dye exclusion; assay type: cell-based, human; conditions: for % Viability (+) CD40L: sCD40L 5 μg/ml
Experimental: Peripheral blood mononuclear cells (PBMC) were isolated from a CLL patient's blood using a Ficoll-Hypaque gradient centrifulation. Viability was determined by Tryan blue dye exclusion and was >98%. […] CLL cells (PBMC) were cultured in CLL growth medium (e.g. RPMI-1640 medium supplemented with 5% FCS or 2% of autologous donor plasma, supplemented with 2 mM L-Glutamine and 100 U/ml Penicillin-Streptomycin). In addition. for some experiments, CD19^+ B-cells were purified using CD19^+ Dynabeads™ as per manufacture's instructions (Dynal, Cat. #111.03/111.04) and cultured as above. CLL or purified B-CLL cells cultured in growth medium mostly under went spontaneous apoptotic cell death. […] Table II indicates the cell viability of CD19^+ B-CLL cells grown in the presence or absence of sCD40L (5 μg/ml) at different time points and indicates the longer survival of CLL cells. B-CLL cells from Patient #1 cultured with sCD40L had ≧60% viability for greater than 2 weeks, whereas cells grown in the absence of sCD40L had less than 10% viability.

| Molecule | cytotoxicity to DHL-4 cells (in words) (DHL-4 cells; exposed to ADM in the absence of sCD40L) | cell survival of B-CLL cells (in words) (B-CLL cells [1]) | HLA-DR+ % Positive ([2]; 48 hrs) [%] | HLA-DR+ MFI ([2]; 48 hrs) | HLA-DR+ % Positive ([2]; 144 hrs) [%] | HLA-DR+ MFI ([2]; 144 hrs) | HLA-DR expression on B-CLL cells (in words) ([2]; cultured in the presence of sCD40L vs not) | % Viability (+) CD40L (B-CLL cells [3]; B-CLL Patient #1, 0 Hours) | % Viability (+) CD40L (B-CLL cells [3]; B-CLL Patient #1, 48 Hours) [%] | % Viability (+) CD40L (B-CLL cells [3]; B-CLL Patient #1, 96 Hours) [%] | % Viability (+) CD40L (B-CLL cells [3]; B-CLL Patient #1, 144 Hours) [%] | % Viability (+) CD40L (B-CLL cells [3]; B-CLL Patient #2, 0 Hours) | % Viability (+) CD40L (B-CLL cells [3]; B-CLL Patient #2, 72 Hours) [%] | % Viability (+) CD40L (B-CLL cells [3]; B-CLL Patient #2, 96 Hours) [%] | % Viability (+) CD40L (B-CLL cells [3]; B-CLL Patient #2, 144 Hours) [%] | viability of B-CLL cells cultured with sCD40L (B-CLL cells [3]; Patient #1, for greater than 2 weeks) [%] | viability of CLL or purified B-CLL cells in culture (in words) (B-CLL cells [3]; cultured in the presence of sCD40L) | survival of DHL-4 cells after ADM treatment (in words) (DHL-4 cells; sCD40L 10 μg/ml, ADM 2×10^−7 M-4×10^−8 M for 4 hours) |
| --- | --- | --- | --- | --- | --- | --- | --- | --- | --- | --- | --- | --- | --- | --- | --- | --- | --- | --- |
| COc1cccc2c1C(=O)c1c(O)c3c(c(O)c1C2=O)C[C@@](O)(C(=O)CO)C[C@@H]3O[C@H]1C[C@H](N)[C@H](O)[C@H](C)O1 [ADM, adriamycin] | increased cytotoxicity | – | – | – | – | – | – | – | – | – | – | – | – | – | – | – | – | – |
| sCD40L: soluble CD40L | – | cell survival | 88 | 101 | 95 | 2943 | higher level of HLA-DR expression | ≧90% | 90 | 77 | 72 | ≧90% | 72 | 65 | 51 | ≥ 60 | extended their viability | prolonged survival |
